# Columns and labels:
# [1] = molecular target: T1, human recombinant heparanase (h-hpa) (Homo sapiens, UniProt Q9Y251); experiment: In vitro dimethylmethylene blue (DMB) assay for heparanase activity
# T1 sequence (Q9Y251 158-543 limits assumed): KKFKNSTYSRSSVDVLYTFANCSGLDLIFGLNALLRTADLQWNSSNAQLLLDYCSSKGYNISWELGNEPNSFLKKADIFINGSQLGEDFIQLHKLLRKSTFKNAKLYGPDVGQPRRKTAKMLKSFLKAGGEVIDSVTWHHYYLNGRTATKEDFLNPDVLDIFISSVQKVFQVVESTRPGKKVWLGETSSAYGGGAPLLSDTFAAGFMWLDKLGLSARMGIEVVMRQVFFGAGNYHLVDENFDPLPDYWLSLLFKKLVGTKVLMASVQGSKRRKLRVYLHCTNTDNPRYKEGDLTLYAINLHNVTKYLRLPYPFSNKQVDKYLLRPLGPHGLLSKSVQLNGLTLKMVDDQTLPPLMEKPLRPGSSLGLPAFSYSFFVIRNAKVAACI
# T1 sequence (Q9Y251 36-109 limits assumed): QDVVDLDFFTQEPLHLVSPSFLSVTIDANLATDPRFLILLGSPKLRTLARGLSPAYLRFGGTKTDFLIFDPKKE
# Experimental: (a) In Vitro Dimethylmethylene Blue (DMB) Assay for Heparanase Activity
# Heparin Sepharose CL-6B beads were added up to the top of the wells of a multiscreen column loader (Millipore). A 96-well multiscreen plate containing 0.65 μm hydrophilic, low protein binding, Durapore membrane (Millipore) was placed, upside down, on top of the multiscreen column loader. The column loader and the multiscreen plate were held together, turned over, and the beads were uniformly transferred from the column loader to the multiscreen plate (Millipore, MADVM 650). Double-distilled water (DDW) was then added to the beads, which were allowed to swell for one minute, and then washed (three times) with DDW under vacuum. Heparin concentration was estimated to be 10 μM/well.
# To each well, phosphate-buffered saline (PBS) containing 1% bovine serum albumin (BSA; 70 μl/well) and DMB (32 mg of DMB were dissolved in 5 ml ethanol, diluted to 1 liter with formate buffer containing 4 g sodium formate and 4 ml formic acid; 120 μl/well) were added. Color was developed after 5 minutes, and the absorbance of the samples was determined using a microplate reader (Spectra Max, Molecular Devices) at 530 nm with 570 nm as reference. The absorbance correlated to heparanase activity. As a control, heparanase was added to the heparin Sepharose swollen beads in the multiscreen plate and the heparanase reaction products were filtered immediately thereafter and the absorbance of these control samples was subtracted from all other samples.
# The cell extracts were centrifuged and resuspended in 20 mM phosphate citrate buffer, pH 5.4 containing 50 mM NaCl. The cells were lysed by three cycles of freezing and thawing. The cell lysates were centrifuged (10000×g for 5 min), supernatants were collected and then assayed for heparanase activity using the DMB assay.
# The partially purified human recombinant heparanase or the crude cell extracts expressing either human or mouse recombinant heparanase were added for a 3-hour incubation and the reaction continued as described above. Absorbance of the developing color was measured as described above.
# HT1080 cells = experiment: In vitro assay of invasion inhibition (BD BioCoat Angiogenesis System, matrigel); format: cell-based, human; details: for Invasion: HT1080 cells through matrigel, non-toxic concentration, 22 hours
# Experimental: (c) In Vitro Assay of Invasion Inhibition by Heparanase Inhibitors
# The ability of the compounds of the invention to inhibit cell invasion was determined quantitatively by the in vitro Endothelial Cell Migration assay using a BD BioCoat Angiogenesis System kit. The kit consists of a 24-multiwell insert plate (FluoroBlok, BD Falcon) containing a microporous (3.0 μm pore size) polyethylene terephthalate (PET) membrane that is capable of blocking fluorescence completely (>99% efficiency). This membrane is uniformly coated with matrigel (BD Matrigel Matrix). The uniform layer of matrigel matrix serves as a reconstituted authentic basement membrane in vitro, providing a true barrier to non-invasive cells, but allowing endothelial cells to attach to the membrane and freely migrate towards an angiogenic stimulus in the lower chamber of the insert plate. Post-labeling the cells with a fluorescent dye and measuring the fluorescence of invading cells in a fluorescent plate reader, provides quantitative measurement of cell invasion.
# To cover the optimal seeding density for HT1080 cells, suspensions containing various cell concentrations were prepared: 1 ml of 3×10^5 cells/ml, 8 ml of 1.5×10^5 cells/ml and 1 ml of 0.75×10^5 cells/ml. The top chambers of each well in the inserts was filled with 0.25 ml cell-suspension, […] DMEM containing 5% fetal calf serum and an inhibitor solution. The plates were incubated for 22 hours at 37° C. and 8% CO2 atmosphere. At the end of incubation, the medium was aspirated from the upper chambers, and the insert was transferred into a second 24-well plate containing 0.5 ml/well of the fluorescent dye Calcein AM solution (4 μg/ml per plate, prepared from 50 μg Calcein AM dissolved in 20 μl DMSO and 12.5 ml of warm HBSS medium), and incubated for 90 minutes at 37° C., 8% CO2 atmosphere. Fluorescence of invaded cells was read in a fluorescence plate reader with bottom read capabilities at excitation/emission wavelength of 485/530 nm, without further manipulation. Only those labeled cells that have invaded the matrigel and passed through the pores of the PET membrane, were detected.
Compound,IC50 [1],Invasion (HT1080 cells),inhibition of cell invasion (HT1080 cells)
CCCCCCCCCCCCCCCCCC(=O)NC1=NN(c2ccc(Oc3ccccc3)c(S(=O)(=O)O)c2)C(=O)C1/N=N/c1c(C)nn(C)c1C (stereo not shown) [Compound 22],650 nM,yes,
CCCCCCCCCCCCCCCCCC(=O)Nc1nn(-c2ccc(Oc3ccccc3)c(S(=O)(=O)O)c2)c(O)c1/N=N/c1c(C)nn(CCCCCCCCCC)c1C [Compound 32],240 nM,yes,
CCCCCCCCCCCCCCCCCC(=O)NC1=NN(c2ccc(Oc3ccccc3)c(S(=O)(=O)O)c2)C(=O)C1/N=N/c1cc(C(=O)OC)ccc1O (stereo not shown) [Compound 18],290 nM,yes,
CCCCCCCCCCCCCCCCCC1=NN(c2ccc(Oc3ccccc3)c(S(=O)(=O)O)c2)C(=O)C1/N=N/c1ccc(N(CC)CC)cc1 (stereo not shown) [Compound 10],260 nM,yes,
CCCCCCCCCCCCCCCCCC(=O)NNC(=O)CC(=O)Nc1ccccc1C(=O)O [Compound 2],1700 nM,yes,effective inhibitors of cell invasion
CCCCCCCCCCCCCCCc1ccc(OC(CC)C(=O)NCCCNC(=O)c2ccc3ccccc3c2O)cc1 (stereo not shown) [Compound 31],520 nM,yes,
CCCCCCCCCCCCCCCCOc1ccccc1C1C=NN(c2ccc(S(=O)(=O)O)cc2)C1=O (stereo not shown) [Compound 28],1000 nM,yes,
CCCCCCCCCCCCCCCC1=NN(c2ccc(S(=O)(=O)O)cc2)C(=O)C1Br (stereo not shown) [Compound 13],1000 nM,yes,
CCCCCCCCCCCCCCCCCC1=NN(c2ccc(Oc3ccccc3)c(S(=O)(=O)O)c2)C(=O)C1/N=N/c1cccc(O)c1 (stereo not shown) [Compound 16],220 nM,yes,
